The record followed here is US20250084112A1, “Chemical Compounds Useful for Inhibiting Nav1.8 Voltage-Gated Sodium Channels and Treating Nav1.8 Mediated Diseases” (GlaxoSmithKline Intellectual Property Development Limited, priority 2021, published 2025).

A short description of data set [1]: Kinetic solubility measurement using Charged Aerosol Detector (CAD). As to conditions: phosphate buffered saline (PBS) pH 7.4, aqueous buffer, PBS pH 7.4, 1 hour at room temperature, from DMSO stock. It counts as physicochemical. The protocol: Kinetic solubility measurement using Charged Aerosol Detector (CAD). The aqueous kinetic solubility at pH 7.4 was determined by measuring the concentration of solute in solution after precipitation from DMSO stock solution. The DMSO stock solution was diluted 20-fold with phosphate buffered saline (PBS) pH 7.4 and the solubility of the compound was measured after 1 hour equilibration at room temperature by HPLC-CAD. Calibration standards of Ketoconazole and Primidone were prepared by serial dilutions in DMSO at concentrations ranging from 0.016 to 4.5 mg/ml to produce the calibration curve used to determine the solubility of the compounds as previously described in Max W. Robinson et al, Use of Calculated Physicochemical Properties to Enhance Quantitative Response When Using Charged Aerosol Detection, Anal. Chem., 2017, 89 (3), pp 1772-1777, which is herein incorporated by reference.

In the next data set the target is human Nav1.8 (Homo sapiens (Human), UniProt Q9Y5Y9). The data set is described as follows: QPatch 48 HTX electrophysiology, half inactivation state (V1/2) voltage protocol in HEK293-Nav1.8. It counts as cell-based. The note with it: HEK293-Nav1.8, QPatch V1/2 protocol, P2 current; average if more than one run. The protocol: Human embryonic kidney 293 cells (HEK293) expressing human Nav1.8, human Navβ1 and human TREK1 (HEK293-Nav1.8) were grown at 37° C., 5% CO2 in 150 cm^2 flasks. HEK293-Nav1.8 were passaged every 2-3 days into T175 cell culture flasks when confluency reached 80-90%.
Pharmacological assessment of the compounds of the invention was performed using HEK293-Nav1.8 in combination with an assay developed on the QPatch 48 HTX electrophysiological system. HEK293-Nav1.8 were prepared on the day of use by removing culture media, washing in DPBS, adding Accutase (2 ml to cover the surface, aspirate 1 ml then 1.5 min at 37° C.) followed by addition of CHO-SFM II to stop the enzyme digestion and in order to obtain a suspension of 3×10^6 cell/mL.
Compound was prepared in an extracellular solution of the following composition: NaCl (145 mM), KCl (4 mM), CaCl2 (2 mM), MgCl2 (2 mM), HEPES (1 mM), Glucose (10 mM), pH 7.4 with NaOH Osmolality 300 mOsM/L. The intracellular solution was used of the following composition: CsF (115 mM), CsCl (20 mM), NaCl (5 mM), EGTA (10 mM), HEPES (10 mM), Sucrose (20 mM), pH 7.2 with CsOH Osmolality 310 mOsm/L.
Utilizing the voltage-clamp mode in the QPatch 48 HTX system a half inactivation state voltage protocol (V1/2) was used to determine pharmacological activity of compounds of the invention at Nav1.8 ion channels. A V1/2 protocol was utilized with the following voltage steps: a holding voltage of −100 mV was established followed by a 20 ms voltage step to 0 mV (P1), followed by an inactivating voltage step at −46 mV for 8 seconds, followed by a step to −100 mV for 20 ms, before a 20 ms step to 0 mV (P2) before returning to the holding voltage of −100 mV. This voltage protocol was repeated at a frequency of 0.07 Hz., current magnitude was quantified at the P2 step throughout the recording. Inhibition of the measured current amplitude with the compounds of the invention was analyzed by fitting a 6-8 point dose-response curve allowing determination of the fifty percent inhibition concentration (IC50). Within the QPatch HTX software, P2 current was normalized according to measurements made at baseline after compound and after positive reference compound and fit to the following equation: […]
To assess current run-down over the course of the experiment vehicle-only wells were utilized and the normalized current with vehicle-only (n.IVEH) was determined. To correct the compound response for run-down, the currents were corrected according the following formula: […]
Compounds of the invention and the corresponding parent compounds (see Table 1A for structures) were tested for activity against Nav1.8 sodium channels in the above assay in one or more experimental runs and the results are shown in Table 1 below. Potency of the compounds of the invention is reported as a pIC50 value. The pIC50 value is the negative log of the IC50 value, wherein the IC50 value is the half maximal inhibitory concentration measured in molar (M). Potency of the compounds of the invention is compared to the potency of the parent compound. For compounds tested in more than one experimental run, the pIC50 value is reported as an average.

A short description of data set [2]: Rat IV/PO pharmacokinetic study (prodrug to parent conversion). It counts as in vivo, Han Wistar rats. As for the experimental part: An in vivo rat pharmacokinetic study was conducted to determine whether the prodrug compounds of the invention are converted to the respective parent compound upon administration. The rat pharmacokinetic study was conducted with a crossover design on two study days with a one-day recovery period between each study day. Three male, dual catheterized (femoral vein and carotid artery) Han Wistar rats were used for the study. Each rat was also implanted with a gastric catheter for oral dose administration. Rats were dosed at 1 mg/kg by a 60 minute intravenous (IV) infusion (femoral vein cannula), then subsequently oral dosed at 2 mg/kg via the gastric cannula, with 48 hours between dosing sessions. Dose solutions of the compound of Example 3 were prepared in 20% Cavitron/5% DMSO/75% water (IV) and in 6% Cavitron/5% DMSO/89% water (PO) without pH adjustment. The dose solutions were filtered using a 0.22 μ filter. The pH of the final dosing solutions was 6.0.
During the intravenous study leg, blood samples were collected from the carotid artery catheter at target times of 15, 30, 60 (end of infusion), 65, 75, 90, 120, 240, 360, 480, 720, and 1440 minutes following the initiation of the intravenous infusion of the compound of Example 3. During the oral study leg, blood samples were collected prior to dosing and at target times of 15, 30, 60, 90, 120, 180, 240, 360, 480, 720, and 1440 minutes following oral administration. Blood samples, 100 μL, were mixed with 100 μL phosphatase inhibitor, a 50 μL aliquot of the blood and inhibitor mixture was transferred to a non-heparinized tube and stored at approximately −80° C. until analyzed. The concentrations in the filtered dose solutions were confirmed by preparing stepwise dilutions first into 50% aqueous acetonitrile with 0.1% formic acid then into heparinized male Wistar Han blood:inhibitor to achieve determined nominal concentrations. Triplicate 50 μL aliquots were removed and were frozen and stored at approximately […] until analyzed by LC-MS/MS as described below.
LC-MS/MS was used to quantify the compound of Example 3 and the corresponding parent compound of Example 3A in the biological samples generated in the above described in vivo study. Samples were prepared by protein precipitation followed by LC-MS/MS analysis employing positive-mode ionization against a set of calibration standards for the compounds prepared in the same matrix. Pharmacokinetic parameters for the study was derived from the concentration versus time profiles. Key pharmacokinetic parameters such as AUC0-∞ (extrapolated area under the blood concentration-time curve), AUC0-t (area under the blood concentration-time curve to the last time point with quantifiable drug), Cmax (maximum concentration), Tmax (time Cmax is achieved), CL (systemic blood clearance), Vdss (steady-state volume of distribution), MRT (mean residence time), and t1/2(half-life) were determined for the compound of Example 3. The key pharmacokinetic parameters such as AUC0-∞, AUC0-t, Cmax, Tmax, MRT, and t1/2 (half-life) were determined for the parent compound Example 3A. Descriptive statistical data of pharmacokinetic parameters were calculated, including the mean and standard deviation (SD) using Microsoft Excel.
The data are shown below in Tables 3A and 3B. Data are reported as mean±SD (N=3).

Setting [3] is: average of multiple runs, read-out: CAD solubility (Parent Compounds).
Where [4] appears, read: average for Examples 1 and 3, one run for 2 and 4, read-out: CAD solubility (Prodrug Compounds of the Invention).
Setting [5] is: male, Han Wistar, whole blood, prodrug in blood, Example 3 1 mg/kg 60 minute intravenous infusion, mean±SD (N=3).

As a reminder, the solubility is the dissolved amount per volume that the medium holds. By AUC(0-inf) is commonly meant the area under the concentration-time curve extrapolated to infinity. One may read the AUC(0-t) as exposure summed from dosing to a finite time, without extrapolation to infinity. One may read the Cmax as the highest concentration seen after dosing.

≈ marks a conversion by molar mass, not a printed value. Like-named read-outs stand apart in the source and are kept apart here. Bounds are passed on as bounds.

Chain of human Nav1.8 (Q9Y5Y9 whole entry): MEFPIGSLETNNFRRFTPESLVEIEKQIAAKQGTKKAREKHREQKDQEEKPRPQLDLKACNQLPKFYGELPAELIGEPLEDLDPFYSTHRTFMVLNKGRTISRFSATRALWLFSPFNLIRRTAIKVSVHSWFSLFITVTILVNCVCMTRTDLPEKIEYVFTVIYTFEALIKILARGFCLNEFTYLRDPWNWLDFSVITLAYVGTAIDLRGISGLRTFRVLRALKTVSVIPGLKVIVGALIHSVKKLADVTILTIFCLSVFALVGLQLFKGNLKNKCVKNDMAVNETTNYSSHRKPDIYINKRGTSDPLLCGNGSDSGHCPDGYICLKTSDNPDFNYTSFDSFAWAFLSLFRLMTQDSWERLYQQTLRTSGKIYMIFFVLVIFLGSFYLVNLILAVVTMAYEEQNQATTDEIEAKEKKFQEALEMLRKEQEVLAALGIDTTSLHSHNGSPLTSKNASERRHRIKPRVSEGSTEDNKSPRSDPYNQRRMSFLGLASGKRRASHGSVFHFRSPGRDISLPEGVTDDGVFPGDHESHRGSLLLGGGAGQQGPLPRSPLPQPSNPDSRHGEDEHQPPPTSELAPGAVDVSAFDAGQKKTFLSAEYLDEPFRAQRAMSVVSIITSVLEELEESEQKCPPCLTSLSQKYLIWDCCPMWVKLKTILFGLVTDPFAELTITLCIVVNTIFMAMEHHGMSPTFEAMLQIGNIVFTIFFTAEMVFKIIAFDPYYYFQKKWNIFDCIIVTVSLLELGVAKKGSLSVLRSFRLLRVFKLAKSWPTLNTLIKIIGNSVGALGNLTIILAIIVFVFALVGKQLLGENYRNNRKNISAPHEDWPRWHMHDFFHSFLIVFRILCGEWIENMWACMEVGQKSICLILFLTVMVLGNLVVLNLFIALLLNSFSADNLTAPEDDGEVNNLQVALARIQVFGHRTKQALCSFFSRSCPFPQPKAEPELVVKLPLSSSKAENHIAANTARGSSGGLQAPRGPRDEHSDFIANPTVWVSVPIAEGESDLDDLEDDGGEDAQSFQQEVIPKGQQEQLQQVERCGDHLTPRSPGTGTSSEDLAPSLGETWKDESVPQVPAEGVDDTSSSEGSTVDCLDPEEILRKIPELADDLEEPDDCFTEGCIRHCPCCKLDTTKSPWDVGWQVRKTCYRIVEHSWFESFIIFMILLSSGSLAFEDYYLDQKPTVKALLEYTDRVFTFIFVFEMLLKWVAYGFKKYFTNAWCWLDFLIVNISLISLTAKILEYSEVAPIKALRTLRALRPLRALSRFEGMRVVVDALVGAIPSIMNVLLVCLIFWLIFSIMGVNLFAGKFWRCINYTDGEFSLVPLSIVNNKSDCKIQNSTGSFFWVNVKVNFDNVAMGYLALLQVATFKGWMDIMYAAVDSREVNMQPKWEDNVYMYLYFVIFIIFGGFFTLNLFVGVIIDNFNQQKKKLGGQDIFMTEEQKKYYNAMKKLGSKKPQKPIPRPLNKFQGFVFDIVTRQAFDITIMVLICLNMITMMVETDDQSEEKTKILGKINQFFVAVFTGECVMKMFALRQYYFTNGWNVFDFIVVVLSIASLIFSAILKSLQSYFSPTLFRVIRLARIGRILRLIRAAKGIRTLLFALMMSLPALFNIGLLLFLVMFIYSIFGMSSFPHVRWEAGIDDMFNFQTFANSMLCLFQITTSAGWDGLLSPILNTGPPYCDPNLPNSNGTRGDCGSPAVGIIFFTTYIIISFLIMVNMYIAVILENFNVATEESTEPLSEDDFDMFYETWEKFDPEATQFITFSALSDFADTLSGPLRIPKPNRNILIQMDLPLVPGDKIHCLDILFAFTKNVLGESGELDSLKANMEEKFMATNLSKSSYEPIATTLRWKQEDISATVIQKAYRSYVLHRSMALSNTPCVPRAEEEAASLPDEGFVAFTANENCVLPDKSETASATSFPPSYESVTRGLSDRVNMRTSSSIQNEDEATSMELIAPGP

For the compound `Cc1cc(OC(F)(F)F)ccc1N1CN(c2ccc(=O)[nH]c2C)C(=O)c2cc(C(F)(F)F)cnc21` [Parent Compound 4A, 1-(2-methyl-4-(trifluoromethoxy)phenyl)-3-(2-methyl-6-oxo-1,6-dihydropyridin-3-yl)-6-(trifluoromethyl)-2,3-dihydropyrido[2,3-d]pyrimidin-4(1H)-one], the solubility at 1 h in data set [1] (setting [3]) was determined as 87 µg/mL (≈ 175 µM). The “[Nav1.8] pIC50 (Parent Compounds)” value at human Nav1.8 is given as 7.5.

For the compound `Cc1cc(F)ccc1N1CN(c2ccc(=O)[nH]c2C)C(=O)c2cc(C(F)(F)F)ccc21` [Parent Compound 1A, 1-(4-fluoro-2-methylphenyl)-3-(2-methyl-6-oxo-1,6-dihydropyridin-3-yl)-6-(trifluoromethyl)-2,3-dihydroquinazolin-4(1H)-one], in data set [1] (setting [3]), the solubility at 1 h came to 48 µg/mL (≈ 111 µM). The “[Nav1.8] pIC50 (Parent Compounds)” value on human Nav1.8 is 8.

In the case of `Cc1cc(F)ccc1N1CN(c2ccc(=O)n(COP(=O)(O)O)c2C)C(=O)c2cc(C(F)(F)F)ccc21` [Example 1, (5-(1-(4-Fluoro-2-methylphenyl)-4-oxo-6-(trifluoromethyl)-1,4-dihydroquinazolin-3(2H)-yl)-6-methyl-2-oxopyridin-1(2H)-yl)methyl dihydrogen phosphate], the solubility at 1 h in data set [1] (setting [4]) was > 260 µg/mL. For the same compound, the “[Nav1.8] pIC50 (Compounds of the Invention)” value on human Nav1.8 turned out to be 6.8.

As to `Cc1cc(F)ccc1N1CN(c2ccc(=O)n(COP(=O)(O)O)c2C)C(=O)c2cc(Cl)ccc21` [Example 3, (5-(6-chloro-1-(4-fluoro-2-methylphenyl)-4-oxo-1,4-dihydroquinazolin-3(2H)-yl)-6-methyl-2-oxopyridin-1(2H)-yl)methyl dihydrogen phosphate], the solubility at 1 h in data set [1] (setting [4]) amounted to 102 µg/mL. The “[Nav1.8] pIC50 (Compounds of the Invention)” value on human Nav1.8 amounted to 6.9. In data set [2] (setting [5]), the area under the curve AUC(0-inf) is 250 ± 30 ng·h/mL, the AUC(0-t) amounted to 240 ± 40 ng·h/mL and the highest concentration (Cmax) amounted to 260 ± 24 ng/mL. For the same compound, the clearance in data set [2] (male, Han Wistar, whole blood, prodrug, systemic blood clearance, Example 3 1 mg/kg 60 minute intravenous infusion, mean±SD (N=3)) worked out at 58 ± 9 mL/min/kg. Besides, the “quantifiable concentrations following oral administration” value in data set [2] (prodrug in blood, Example 3 2 mg/kg oral via gastric cannula, text runs over cells r6-r10) is recorded as “There were no”.

`Cc1cc(OC(F)(F)F)ccc1N1CN(c2ccc(=O)n(COP(=O)(O)O)c2C)C(=O)c2cc(C(F)(F)F)cnc21` [Example 4, (6-methyl-5-(1-(2-methyl-4-(trifluoromethoxy)phenyl)-4-oxo-6-(trifluoromethyl)-1,4-dihydropyrido[2,3-d]pyrimidin-3(2H)-yl)-2-oxopyridin-1(2H)-yl)methyl dihydrogen phosphate]: the solubility at 1 h in data set [1] (setting [4]) is 181 µg/mL. In addition, on human Nav1.8, the “[Nav1.8] pIC50 (Compounds of the Invention)” value worked out at 6.1.

Turning to `Cc1cc(F)ccc1N1CN(c2ccc(=O)[nH]c2C)C(=O)c2ccc(C(F)(F)F)cc21` [Parent Compound 2A, 1-(4-fluoro-2-methylphenyl)-3-(2-methyl-6-oxo-1,6-dihydropyridin-3-yl)-7-(trifluoromethyl)-2,3-dihydroquinazolin-4(1H)-one], in data set [1] (setting [3]), the solubility at 1 h worked out at 51 µg/mL (≈ 118 µM).

As for `Cc1cc(F)ccc1N1CN(c2ccc(=O)[nH]c2C)C(=O)c2cc(Cl)ccc21` [Parent Compound 3A, 6-chloro-1-(4-fluoro-2-methylphenyl)-3-(2-methyl-6-oxo-1,6-dihydropyridin-3-yl)-2,3-dihydroquinazolin-4(1H)-one], the solubility at 1 h in data set [1] (setting [3]) is 54 µg/mL (≈ 136 µM).

Take `Cc1cc(F)ccc1N1CN(c2ccc(=O)n(COP(=O)(O)O)c2C)C(=O)c2ccc(C(F)(F)F)cc21` [Example 2, (5-(1-(4-fluoro-2-methylphenyl)-4-oxo-7-(trifluoromethyl)-1,4-dihydroquinazolin-3(2H)-yl)-6-methyl-2-oxopyridin-1(2H)-yl)methyl dihydrogen phosphate]: the solubility at 1 h in data set [1] (setting [4]) is > 193 µg/mL. Also, on human Nav1.8, the “[Nav1.8] pIC50 (Compounds of the Invention)” value was 6.6.
